According to patent publication US9808434B2, “Compound for treating cancer and diabetes” (CITY OF HOPE, priority 2011, dated 2017):
“Also recorded” adds a separate entry of the source.

Experiments:
[1] = system: cyclin D1, cyclin E2, CDK2, CDK4, p21WAF1/Cip1, p27Kip1; assay: HL-60 cell cycle regulatory proteins, Western blot; assay type: cell-based, human; details: 24 hours, 0.5-3 μM
Experimental: HL-60 cells were treated without or with COH-SR4 or COH-SR9 at a concentration of 0.5 μM, 1 μM, 2 μM, or 3 μM for 24 hours. Then the total cell lysates from the treated cells or untreated cells were resolved under electrophoresis and immunoblotted with antibodies against cyclin D1, cyclin E2, CDK2, CDK4, p21WAF1/Cip1, p27Kip1, and β-actin. β-actin served as an internal control. Densitometric quantitation was performed on each blot and the arbitrary numbers above each band represent the fold increase/decrease compared with untreated control. […] These kinase inhibitors are known to interfere with cell cycle progression to cause phase-specific cycle arrest by perturbing the phosphorylation process through direct interaction with their target proteins (cyclins or CDK).

HL-60 cells [2] = assay: HL-60 cell cycle, PI flow cytometry; assay type: cell-based, human; details: for cells in the S phase: 3 μM, control 47%; for viable cells arrested in G0/G1 phase: 48-hour treatment
Experimental: HL-60 cells (1×10^6) were incubated with a test compound (COH-SR4 or COH-SR9) at various concentrations (0.5˜3 μM) for 48 hours, washed and harvested. The cells were then fixed and stained with propodium iodide (P1) and the DNA content was analyzed by flow cytometry. Results of each figure were from 3-4 independent experiments. The cell number in each cell cycle phase was calculated and expressed as overall percentage (FIG. 15A). The percentage of cells in G0/G1 were measured from 0-48-hour treatment with test compounds (FIG. 15B), data expressed as mean±SE.

HL-60 cells [3] = assay: HL-60 apoptosis, Annexin V-PI double staining; assay type: cell-based, human; details: 3 μM, 48 hours
Experimental: HL-60 (5×10^5) cells were incubated with a test compound (COH-SR4 or COH-SR9), ATRA, or nothing (Control) for 48 hours, washed and harvested. The cells were then fixed and double stained with Annexin V-FITC and propodium iodide (PI) and analyzed by flow cytometry. Conjugation of Annexin V and PI staining was used to identify apoptosis cells (early stage and late stage), normal/viable cells and necrotic cells. The percentage distribution of normal/viable (R3, lower left quadrant), early apoptotic (R4, lower right quadrant), late apoptotic (R2, upper right quadrant) and necrotic cells (R1, upper left quadrant) was calculated using Summit software. The percentages of apoptotic cells after treatment with various doses of each compound are shown in FIGS. 16A-H. Both COH-SR4 and COH-SR9 treatment of HL-60 cells increased the number of early apoptotic and late apoptotic cells in a dose-dependent manner compared with untreated cells. At 3 μM, overall apoptotic cells were ˜60% and 40% for COH-SR4 and COHSR9, respectively.

[4] = system: HMLE breast cancer cell line; assay: HMLE viability, DIMSCAN assay; assay type: cell-based, human; details: 3 days, 2-50 μM
Experimental: The effects of COH-SR compounds on breast cancer cells were investigated. Cells from 4T1 or HMLE breast cancer cell line were seeded in 96-well plates (about 2000 cells/well), allowed to proliferate for one day, treated with a COH-SR compound, doxorubicin, paclitaxel, cisplatin, or nothing (control) at a specific dose (3 wells for each treatment) and assayed for cell viability 3 days after using DIMSCAN assay. COH-SR3, COH-SR4, COH-SR9, doxorubicin, paclitaxel, and cisplatin were used at a dosage of 40 nM, 200 nM, 1 μM, 2 μM, 10 μM, or 50 μM for 4T1 breast cancer cell lines. COH-SR14 was used at a dosage of 40 nM, 200 nM, 1 μM, 2 μM, or 10 μM for 4T1 breast cancer cell lines. COH-SR3, COH-SR4, COH-SR9, doxorubicin, paclitaxel, and cisplatin were used at a dosage of 2 μM, 10 μM, or 50 μM for HMLE breast cancer cell lines. COH-SR14 was used at a dosage of 2 μM, or 10 μM for HMLE breast cancer cell lines.

HL-60 cells [5] = assay: HL-60 cell viability, MTT assay; details: for cytotoxicity and cell proliferation: 48 hours, 1-15 μM
Experimental: Three independent experiments were carried out with 3 duplications each, and data are shown as mean±SE.

AMPK = AMPK activation in Hela cells, Western blot; assay type: cell-based; details: 1 hour, 1, 3 or 5 μM
Experimental: Activation of AMPK was associated with the phosphorylation of the α-subunit on Thr-172 of as assessed using phospho-specific antibodies (FIGS. 10A-B). AMPK activation also leads to the increased phosphorylation of the target protein acetyl-CoA carboxylase (ACC) (FIG. 10B).
Cells of each cell lines (Hela, HL-60, and 3T3-L1) were treated for 1 hour with a test compound (COH-SR4, COH-SR9, COH-SR16, or COH-SR18) at a concentration of 1 μM, 3 μM, or 5 μM, or AICAR (5-aminoimidazole-4-carboxamideriboside, an AMPK agonist used as positive control) at a concentration of 500 μM, or none of the above (the untreated cells as negative control). Total cell lysates from the untreated cells and the cells treated with a test compound or AICAR were analyzed by Western blot assay using specific antibodies against phospho-AMPK, phospho-ACC, total AMPK and total ACC.

Structure (SMILES)	protein levels of CDK inhibitors p21WAF1/Cip1 and p27Kip1 [1]	protein levels of cyclin D1, cyclin E2, CDK2 and CDK4 [1]	cells in the S phase (HL-60 cells [2])	viable cells arrested in G0/G1 phase (HL-60 cells [2])	overall apoptotic cells (HL-60 cells [3])	cytotoxic effects compared with doxorubicin, paclitaxel and cisplatin (FIG. 30) [4]	cytotoxicity and cell proliferation (HL-60 cells [5])	IC50 (HL-60 cells [5]; Homo sapiens, HL-60, 48 h)	IC50 (HL-60 cells [5]; Homo sapiens, HL-60, 72 h)	AMPK activation (AMPK)	IC50 (HL-60 cells [5]; 72 hours incubation)
O=C(Nc1cc(Cl)cc(Cl)c1)Nc1cc(Cl)cc(Cl)c1 [COH-SR4, 1,3-bis(3,5-dichlorophenyl) urea]	upregulated	dose-dependent reduction in the protein levels of cyclin D1, cyclin E2, CDK2 and CDK4	10%	85%	~60%	more potent cytotoxic effects	exhibited cytotoxicity and prevented cell proliferation of HL-60 leukemia cells	< 5000 nM	~1700 nM	highest potency; also recorded: Dose-dependent AMPK activation	–
Cc1c(Cl)cc(NC(=O)Nc2cc(Cl)cc(Cl)c2)c(O)c1Cl [COH-SR9, 1-(3,5-dichlorophenyl)-3-(3,5-dichloro-2-hydroxy-4-methyphenyl) urea]	upregulated	dose-dependent reduction in the protein levels of cyclin D1, cyclin E2, CDK2 and CDK4	13%	85%	40%	more potent cytotoxic effects	exhibited cytotoxicity and prevented cell proliferation of HL-60 leukemia cells	–	–	Dose-dependent AMPK activation	~2500 nM
